Publication PMC10894853, “Distribution and elimination kinetics of midazolam and metabolites after post-resuscitation care: a prospective observational study” (Scientific Reports, 2024)

What was measured:
[1] = Non-compartmental pharmacokinetics of midazolam and metabolites in plasma after discontinuation of MDZ infusion (LC-MS/MS); type: in vivo, human; settings: for AUClast / AUCinf: relative concentration; for MRT inf: read-out: MRTinf (mean residence time); for MRT last: read-out: MRTlast (mean residence time)
Experimental: The PK parameters were obtained using a non-compartmental method with Phoenix WinNonlin (version 8.3.5; Certara, USA). […] The AUC from time 0 to infinity (AUCinf) was calculated as AUClast + Clast/λz, where Clast is the last measurable concentration and λz is the elimination rate constant. The mean residence time was calculated as […]. The estimated t1/2 was calculated from λz based on a previously reported equation[12].
All samples were immediately frozen and stored at –70 ℃ after centrifugation with 3,000 rpm for 10 min and then sent to the Nutrition Food Microbiology Laboratory at Chungnam National University (http://nfml.kr/) to determine the concentration of midazolam and its metabolites using liquid chromatography with tandem mass spectrometry analysis.
The sample preparation method was performed as previously described with some modifications. A 20 µL of sample was mixed with 180 µL of 80% methanol, followed by protein precipitation at 4 °C for 30 min. Subsequently, the supernatant was harvested and added to 1800 µL of distilled water. The pre-treated samples were loaded onto an Oasis HLB Vac RC cartridge (30 mg, 20 cc, Waters) that had been preconditioned with 6 mL of methanol and 6 mL of distilled water. The cartridge was washed with 6 mL distilled water and sequentially eluted with methanol (4 mL). The eluted samples were dried using an evaporator and resuspended with 0.2 mL of methanol for analysis.

[2] = cited from earlier work
[3] = Distribution (proportion of total relative concentration) of midazolam and metabolites in plasma after discontinuation of MDZ infusion; settings: range over sampling times 0 to 24 h
Experimental: Serum samples for analyzing the plasma concentration of MDZ and its metabolites were obtained immediately (baseline) and at 4, 8, 12, and 24 h after the discontinuation of MDZ infusion.
The distribution of each compound was assessed by calculating its relative concentration as a ratio to the total sum of relative concentrations at each sampling time.

[4] = Awakening time and estimated midazolam concentration at awakening (simple linear regression); type: in vivo, human
Experimental: The primary outcome of this study was the distribution and elimination of MDZ and its metabolites over 24 h following the discontinuation of MDZ infusion after targeted temperature management (33 or 36℃). The secondary outcome was the association between the PK parameters and awakening time in a subgroup of patients who experienced neurological recovery.
We investigated the PK parameters for all compounds in each individual. […] Among these four patients, the mean of the estimated MDZ concentration was 16.8 ng/mL.
Figure 4 Simple linear regression analysis between the absolute concentration of midazolam and awakening time in the subgroup of awakened patients after post-resuscitation care (n = 7). […] The regression line (grid line) is followed the regression equation: Y = − 4.506 × X + 105.5.

[5] = after discontinuation of MDZ infusion, mean ± SD
[6] = plasma, 0 to 24 h after discontinuation of MDZ infusion, arithmetic mean ± SD
[7] = plasma, time 0 to infinity after discontinuation of MDZ infusion, mean ± SD
[8] = human, plasma, intravenous, after discontinuation of MDZ infusion, mean ± SD

Row | Compound | MRTinf (mean residence time) [1, 5] [h] | MRTlast (mean residence time) [1, 5] [h] | t1/2 (elimination half-life) [1, 5] [h] | AUClast [1, 6] | AUCinf [1, 7] | other results
1 | midazolam glucuronide [MDZ-Glu] | 16.2 ± 24.1 | 5.8 ± 1.9 |  |  |  | 
2 | O=C(O)[C@H]1O[C@@H](OCc2ncc3n2-c2ccc(Cl)cc2C(c2ccccc2F)=NC3)[C@H](O)[C@@H](O)[C@@H]1O [1-OH-MDZ-Glu, 1-hydroxymidazolam glucuronide] | 21.8 ± 26.8 | 6.8 ± 2.4 | 15.4 ± 19.9 | 9193.0 ± 13,958.4 h*ppm | 14,027.8 ± 15,486.2 h*ppm | Pharmacological potency (sedation) [2]: < 6%; Potency for sedation [2]: 6–10%
3 | Cc1ncc2n1-c1ccc(Cl)cc1C(c1ccccc1F)=NC2 [MDZ, midazolam] |  |  | 6.2 ± 3.9 |  |  | Proportion in total concentration [3]: 21.2–38.4%; concentration at 16.6 h ([4]; human, plasma, intravenous, 0.15 mg/kg/h, from regression equation Y = − 4.506 × X + 105.5 at 16.6 h, awakened patients n = 7, read-out: Estimated concentration of midazolam at the subgroup awakening time): 30.7 ng/mL; Mean of the estimated MDZ concentration at awakening time ([4]; individual regression analysis, four out of seven awakened patients): 16.8 ng/mL; Awakening time in the subgroup after discontinuation of the midazolam infusion ([4]; subgroup of awakened patients n = 7): 16.6 h; Awaken time after discontinuation of midazolam intravenous infusion ([4]; subject #1): 9.6 h; Estimated midazolam concentration at awaken time ([4]; subject #1): 32.3 ng/mL; Awaken time after discontinuation of midazolam intravenous infusion ([4]; subject #2): 10.4 h; Estimated midazolam concentration at awaken time ([4]; subject #2): 20.8 ng/mL; Awaken time after discontinuation of midazolam intravenous infusion ([4]; subject #3): 9.6 h; Estimated midazolam concentration at awaken time ([4]; subject #3): 2.2 ng/mL; Awaken time after discontinuation of midazolam intravenous infusion ([4]; subject #4): 7.1 h; Estimated midazolam concentration at awaken time ([4]; subject #4): 11.9 ng/mL; AUC(0-t) ([1]; human, intravenous, plasma, 0 to 24 h after discontinuation of MDZ infusion, absolute concentration, arithmetic mean ± SD): 1770 ± 2740 ng·h/mL; AUC(0-inf) ([1]; human, intravenous, plasma, time 0 to infinity after discontinuation of MDZ infusion, absolute concentration, mean ± SD): 2110 ± 3050 ng·h/mL; MRT inf [1, 8]: 8.2 ± 5.2 h; MRT last [1, 8]: 4.9 ± 1.6 h
4 | OCc1ncc2n1-c1ccc(Cl)cc1C(c1ccccc1F)=NC2 [1-OH-MDZ, 1-hydroxymidazolam] | 10.5 ± 5.2 | 6.0 ± 2.3 | 8.1 ± 4.9 | 1117.2 ± 1643.5 h*ppm | 1419.1 ± 1845.5 h*ppm | Potency for sedation effect [2]: 60–63%; Proportion in total concentration [3]: 3.3–4.2%
5 | dihydroxymidazolam [Di-OH-MDZ] | 21.0 ± 19.8 | 6.4 ± 2.5 | 14.5 ± 13.7 | 38.2 ± 49.8 h*ppm | 56.2 ± 52.1 h*ppm | 
6 | Cc1ncc2n1-c1ccc(Cl)cc1C(c1ccccc1F)=NC2O[C@@H]1O[C@H](C(=O)O)[C@@H](O)[C@H](O)[C@H]1O (stereo partly drawn) [4-OH-MDZ-Glu, 4-hydroxymidazolam glucuronide] | 7.9 ± 1.4 | 6.4 ± 2.2 | 5.4 ± 0.7 | 29.8 ± 24.4 h*ppm | 33.3 ± 34.3 h*ppm | 
7 | Cc1ncc2n1-c1ccc(Cl)cc1C(c1ccccc1F)=NC2O (stereo not drawn) [4-OH-MDZ, 4-hydroxymidazolam] |  |  |  | 172.5 ± 268.0 h*ppm | 204.7 ± 294.8 h*ppm | Potency for sedation [2]: 0–2%; MRT inf [1, 8]: 10 ± 4.8 h; MRT last [1, 8]: 5.6 ± 1.5 h; half-life ([1]; human, plasma, intravenous, after discontinuation of MDZ infusion, mean ± SD, read-out: t1/2 (elimination half-life) (converted)): 7.3 ± 3.8 h
8 | di-hydroxymidazolam glucuronide [Di-OH-MDZ-Glu] | 19.2 ± 13.0 | 6.4 ± 2.1 | 14.3 ± 9.6 | 187.4 ± 272.0 h*ppm | 200.2 ± 307.1 h*ppm | 
